Measurements from article PMC7265341, “Quantifying CDK inhibitor selectivity in live cells” (Nature Communications, 2020).
Like-named read-outs stand apart in the source and are kept apart here.

What was measured:
CDK17/Cyclin Y = CDK17/Cyclin Y (Homo sapiens, UniProt Q00537); assay: NanoBRET live-cell target engagement, CDK17-NanoLuc/Cyclin Y in HEK-293; format: binding; conditions: for inhibition at 10 µM: read-out: CDK17/Y Inhibition at 10µM (%); for IC50: read-out: CDK17/Y IC50
CDK18/Cyclin Y = CDK18/Cyclin Y (Homo sapiens, UniProt Q07002); assay: NanoBRET live-cell target engagement, CDK18-NanoLuc/Cyclin Y in HEK-293; format: binding; conditions: 10µM, read-out: CDK18/Y Inhibition at 10µM (%)
CDK14/Cyclin Y = CDK14/Cyclin Y (Homo sapiens, UniProt O94921); assay: NanoBRET live-cell target engagement, CDK14-NanoLuc/Cyclin Y in HEK-293; format: binding; conditions: 10µM, read-out: CDK14/Y Inhibition at 10µM (%)
CDK10/Cyclin L2 = CDK10/Cyclin L2 (Homo sapiens, UniProt Q15131); assay: NanoBRET live-cell target engagement, CDK10-NanoLuc/Cyclin L2 in HEK-293; conditions: read-out: CDK10/L2 Inhibition at 10µM (%), 10µM
CDK15/Cyclin Y = CDK15/Cyclin Y (Homo sapiens, UniProt Q96Q40); assay: NanoBRET live-cell target engagement, NanoLuc-CDK15/Cyclin Y in HEK-293; format: binding; conditions: 10µM, read-out: CDK15/Y Inhibition at 10µM (%)
CDK2/Cyclin E1 = CDK2/Cyclin E1 (Homo sapiens, UniProt P24941); assay: NanoBRET live-cell target engagement, CDK2-NanoLuc/Cyclin E1 in HEK-293; format: binding; conditions: 10µM, read-out: CDK2/E1 Inhibition at 10µM (%)
CDK11A/Cyclin L2 = target: T1, CDK11A/Cyclin L2 (Homo sapiens, UniProt Q9UQ88); assay: NanoBRET live-cell target engagement, CDK11A-NanoLuc/Cyclin L2 in HEK-293; format: binding; conditions: 10µM, read-out: CDK11a/L2 Inhibition at 10µM (%)
T1 sequence (Q9UQ88 1-783): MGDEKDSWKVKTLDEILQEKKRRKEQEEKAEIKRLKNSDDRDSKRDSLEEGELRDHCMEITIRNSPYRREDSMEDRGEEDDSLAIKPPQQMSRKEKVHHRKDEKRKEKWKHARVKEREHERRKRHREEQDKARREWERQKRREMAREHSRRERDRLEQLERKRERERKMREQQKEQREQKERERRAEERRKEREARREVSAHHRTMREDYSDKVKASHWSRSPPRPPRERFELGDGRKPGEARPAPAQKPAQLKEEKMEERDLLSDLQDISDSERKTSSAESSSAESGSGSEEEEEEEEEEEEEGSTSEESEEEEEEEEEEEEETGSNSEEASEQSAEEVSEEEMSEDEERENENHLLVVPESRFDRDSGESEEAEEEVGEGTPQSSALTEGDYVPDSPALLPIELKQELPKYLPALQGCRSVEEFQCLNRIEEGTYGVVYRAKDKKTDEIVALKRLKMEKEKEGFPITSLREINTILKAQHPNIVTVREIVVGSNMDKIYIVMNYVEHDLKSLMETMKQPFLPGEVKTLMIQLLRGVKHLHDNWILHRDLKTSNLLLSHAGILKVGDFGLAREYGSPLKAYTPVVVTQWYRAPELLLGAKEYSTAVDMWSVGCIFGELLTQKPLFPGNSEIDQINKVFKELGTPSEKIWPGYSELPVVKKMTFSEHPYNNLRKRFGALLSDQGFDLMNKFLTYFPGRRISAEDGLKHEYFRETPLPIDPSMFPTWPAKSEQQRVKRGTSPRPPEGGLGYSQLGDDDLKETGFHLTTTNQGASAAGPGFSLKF

CDK9/Cyclin K = CDK9/Cyclin K (Homo sapiens, UniProt P50750); assay: NanoBRET live-cell target engagement, NanoLuc-CDK9/Cyclin K in HEK-293; format: binding; conditions: 10µM, read-out: CDK9/K Inhibition at 10µM (%)
CDK5/CDK5R1 = CDK5/CDK5R1 (Homo sapiens, UniProt Q00535); assay: NanoBRET live-cell target engagement, CDK5-NanoLuc/CDK5R1 in HEK-293; format: binding; conditions: 10µM, read-out: CDK5/CDK5R1 Inhibition at 10µM (%)
CDK4/Cyclin D1 = CDK4/Cyclin D1 (Homo sapiens, UniProt P11802); assay: NanoBRET live-cell target engagement, NanoLuc-CDK4/Cyclin D1 in HEK-293; format: binding; conditions: 10µM, read-out: CDK4/D1 Inhibition at 10µM (%)
CDK13/Cyclin K = CDK13/Cyclin K (Homo sapiens, UniProt Q14004); assay: NanoBRET live-cell target engagement, CDK13-NanoLuc/Cyclin K in HEK-293; format: binding; conditions: 10µM, read-out: CDK13/K Inhibition at 10µM (%)
CDK12/Cyclin K = CDK12/Cyclin K (Homo sapiens, UniProt Q9NYV4); assay: NanoBRET live-cell target engagement, CDK12-NanoLuc/Cyclin K in HEK-293; format: binding; conditions: 10µM, read-out: CDK12/K Inhibition at 10µM (%)
CDK20/Cyclin H = CDK20/Cyclin H (Homo sapiens, UniProt Q8IZL9); assay: NanoBRET live-cell target engagement, NanoLuc-CDK20/Cyclin H in HEK-293; format: binding; conditions: 10µM, read-out: CDK20/H Inhibition at 10µM (%)
CDK19/Cyclin C = CDK19/Cyclin C (Homo sapiens, UniProt Q9BWU1); assay: NanoBRET live-cell target engagement, NanoLuc-CDK19/Cyclin C in HEK-293; conditions: read-out: CDK19/C Inhibition at 10µM (%), 10µM
CDK6/Cyclin D1 = CDK6/Cyclin D1 (Homo sapiens, UniProt Q00534); assay: NanoBRET live-cell target engagement, NanoLuc-CDK6/Cyclin D1 in HEK-293; format: binding; conditions: 10µM, read-out: CDK6/D1 Inhibition at 10µM (%)
CDK1/Cyclin E1 = CDK1/Cyclin E1 (Homo sapiens, UniProt P06493); assay: NanoBRET live-cell target engagement, CDK1-NanoLuc/Cyclin E1 in HEK-293; format: binding; conditions: 10µM, read-out: CDK1/E1 Inhibition at 10µM (%)
CDK16/Cyclin Y = CDK16/Cyclin Y (Homo sapiens, UniProt Q00536); assay: NanoBRET live-cell target engagement, CDK16-NanoLuc/Cyclin Y in HEK-293; format: binding; conditions: for inhibition at 10 µM: read-out: CDK16/Y Inhibition at 10µM (%); for IC50: read-out: CDK16/Y IC50
CDK11B/Cyclin L2 = CDK11B/Cyclin L2 (Homo sapiens, UniProt P21127); assay: NanoBRET live-cell target engagement, CDK11B-NanoLuc/Cyclin L2 in HEK-293; format: binding; conditions: 10µM, read-out: CDK11b/L2 Inhibition at 10µM (%)
CDK8/Cyclin C = CDK8/Cyclin C (Homo sapiens, UniProt P49336); assay: NanoBRET live-cell target engagement, NanoLuc-CDK8/Cyclin C in HEK-293; format: binding; conditions: 10µM, read-out: CDK8/C Inhibition at 10µM (%)

CDK12/Cyclin K, sequence (Q9NYV4 1-1481 isoform Q9NYV4-2): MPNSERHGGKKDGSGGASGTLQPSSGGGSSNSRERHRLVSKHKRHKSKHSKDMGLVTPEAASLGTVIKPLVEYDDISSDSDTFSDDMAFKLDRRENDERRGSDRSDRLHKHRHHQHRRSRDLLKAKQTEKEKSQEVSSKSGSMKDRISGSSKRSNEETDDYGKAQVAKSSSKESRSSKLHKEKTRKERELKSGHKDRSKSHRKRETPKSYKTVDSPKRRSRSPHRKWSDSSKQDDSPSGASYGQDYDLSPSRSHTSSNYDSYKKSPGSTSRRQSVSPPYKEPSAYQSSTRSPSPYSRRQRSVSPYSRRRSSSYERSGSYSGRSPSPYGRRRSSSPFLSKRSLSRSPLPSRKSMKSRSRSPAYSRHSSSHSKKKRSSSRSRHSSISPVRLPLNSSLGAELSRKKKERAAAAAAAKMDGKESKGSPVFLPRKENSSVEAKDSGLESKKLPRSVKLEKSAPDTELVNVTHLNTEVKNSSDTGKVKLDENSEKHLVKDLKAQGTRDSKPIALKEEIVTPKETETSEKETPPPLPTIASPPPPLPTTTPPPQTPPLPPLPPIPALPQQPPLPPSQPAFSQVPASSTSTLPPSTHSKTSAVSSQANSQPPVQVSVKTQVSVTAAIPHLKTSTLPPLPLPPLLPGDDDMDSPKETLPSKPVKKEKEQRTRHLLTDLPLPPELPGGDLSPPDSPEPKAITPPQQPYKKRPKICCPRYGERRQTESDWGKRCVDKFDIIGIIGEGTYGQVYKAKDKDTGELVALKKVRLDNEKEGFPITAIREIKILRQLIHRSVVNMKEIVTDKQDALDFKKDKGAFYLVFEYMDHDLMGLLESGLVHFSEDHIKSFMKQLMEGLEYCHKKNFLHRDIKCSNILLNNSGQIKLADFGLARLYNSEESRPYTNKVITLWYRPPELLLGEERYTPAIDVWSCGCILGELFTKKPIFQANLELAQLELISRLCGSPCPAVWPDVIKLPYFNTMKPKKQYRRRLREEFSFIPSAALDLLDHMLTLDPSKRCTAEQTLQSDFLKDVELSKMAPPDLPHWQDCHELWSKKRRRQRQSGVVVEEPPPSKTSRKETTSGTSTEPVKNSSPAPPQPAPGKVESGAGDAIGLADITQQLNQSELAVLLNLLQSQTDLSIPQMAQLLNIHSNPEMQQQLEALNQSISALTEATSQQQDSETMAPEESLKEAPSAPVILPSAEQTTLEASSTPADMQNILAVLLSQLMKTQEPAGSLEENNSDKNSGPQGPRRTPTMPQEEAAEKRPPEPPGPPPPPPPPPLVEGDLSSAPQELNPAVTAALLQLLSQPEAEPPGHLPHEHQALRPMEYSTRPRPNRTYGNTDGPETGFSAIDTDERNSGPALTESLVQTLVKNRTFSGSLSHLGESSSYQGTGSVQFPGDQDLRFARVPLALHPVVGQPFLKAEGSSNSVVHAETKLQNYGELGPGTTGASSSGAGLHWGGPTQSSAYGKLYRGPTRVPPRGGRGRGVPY
CDK12/Cyclin K, sequence (O75909 whole entry partner): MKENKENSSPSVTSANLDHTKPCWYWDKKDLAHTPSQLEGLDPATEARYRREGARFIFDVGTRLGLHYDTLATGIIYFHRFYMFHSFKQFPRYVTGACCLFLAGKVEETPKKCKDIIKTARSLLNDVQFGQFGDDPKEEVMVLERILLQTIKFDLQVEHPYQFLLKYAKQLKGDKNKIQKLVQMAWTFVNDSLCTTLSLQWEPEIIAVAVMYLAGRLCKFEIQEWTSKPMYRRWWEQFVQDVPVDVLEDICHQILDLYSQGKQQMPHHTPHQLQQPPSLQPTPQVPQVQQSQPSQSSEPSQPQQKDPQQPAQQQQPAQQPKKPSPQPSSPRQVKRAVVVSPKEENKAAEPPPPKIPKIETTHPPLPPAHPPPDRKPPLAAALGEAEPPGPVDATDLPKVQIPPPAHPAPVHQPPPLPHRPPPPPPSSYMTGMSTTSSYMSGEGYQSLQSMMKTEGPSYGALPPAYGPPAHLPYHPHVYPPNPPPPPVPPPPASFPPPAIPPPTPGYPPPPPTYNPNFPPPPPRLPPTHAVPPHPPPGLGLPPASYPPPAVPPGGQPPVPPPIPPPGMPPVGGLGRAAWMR
CDK4/Cyclin D1, sequence (P11802 whole entry): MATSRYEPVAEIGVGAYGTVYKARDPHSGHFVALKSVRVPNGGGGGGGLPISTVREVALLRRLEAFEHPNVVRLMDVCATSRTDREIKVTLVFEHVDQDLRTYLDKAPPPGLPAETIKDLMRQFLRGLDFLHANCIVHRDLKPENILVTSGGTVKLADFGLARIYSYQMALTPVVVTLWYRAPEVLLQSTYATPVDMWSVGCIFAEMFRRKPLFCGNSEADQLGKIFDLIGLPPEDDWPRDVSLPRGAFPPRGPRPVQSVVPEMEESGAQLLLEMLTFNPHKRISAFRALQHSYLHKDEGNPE
CDK4/Cyclin D1, sequence (P24385 whole entry partner): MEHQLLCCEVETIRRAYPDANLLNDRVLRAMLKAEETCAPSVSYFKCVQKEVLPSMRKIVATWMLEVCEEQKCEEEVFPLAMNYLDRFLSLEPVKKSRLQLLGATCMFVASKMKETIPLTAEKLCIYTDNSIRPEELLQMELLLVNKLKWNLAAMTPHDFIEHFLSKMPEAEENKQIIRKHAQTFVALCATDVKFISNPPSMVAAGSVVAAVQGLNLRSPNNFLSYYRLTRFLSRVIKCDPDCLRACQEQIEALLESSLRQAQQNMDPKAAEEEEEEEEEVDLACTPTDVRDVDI
CDK5/CDK5R1, sequence (Q00535 whole entry): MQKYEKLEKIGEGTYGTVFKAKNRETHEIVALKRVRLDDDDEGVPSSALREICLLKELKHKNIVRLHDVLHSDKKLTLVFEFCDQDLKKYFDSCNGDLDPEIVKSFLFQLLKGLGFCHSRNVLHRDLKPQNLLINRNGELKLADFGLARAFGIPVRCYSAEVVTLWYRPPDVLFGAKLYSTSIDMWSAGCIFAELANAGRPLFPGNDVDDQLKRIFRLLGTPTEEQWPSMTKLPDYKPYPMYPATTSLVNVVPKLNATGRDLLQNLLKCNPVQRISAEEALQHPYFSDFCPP
CDK5/CDK5R1, sequence (Q15078 whole entry partner): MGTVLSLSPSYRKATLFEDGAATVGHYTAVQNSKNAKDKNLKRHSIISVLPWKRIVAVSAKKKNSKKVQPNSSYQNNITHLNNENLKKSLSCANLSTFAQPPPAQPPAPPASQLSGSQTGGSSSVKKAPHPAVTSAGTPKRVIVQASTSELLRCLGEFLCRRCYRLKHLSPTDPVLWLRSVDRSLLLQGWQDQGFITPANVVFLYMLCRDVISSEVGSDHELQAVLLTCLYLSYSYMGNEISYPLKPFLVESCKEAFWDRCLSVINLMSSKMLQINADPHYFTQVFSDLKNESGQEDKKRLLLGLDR
CDK17/Cyclin Y, sequence (Q00537 whole entry): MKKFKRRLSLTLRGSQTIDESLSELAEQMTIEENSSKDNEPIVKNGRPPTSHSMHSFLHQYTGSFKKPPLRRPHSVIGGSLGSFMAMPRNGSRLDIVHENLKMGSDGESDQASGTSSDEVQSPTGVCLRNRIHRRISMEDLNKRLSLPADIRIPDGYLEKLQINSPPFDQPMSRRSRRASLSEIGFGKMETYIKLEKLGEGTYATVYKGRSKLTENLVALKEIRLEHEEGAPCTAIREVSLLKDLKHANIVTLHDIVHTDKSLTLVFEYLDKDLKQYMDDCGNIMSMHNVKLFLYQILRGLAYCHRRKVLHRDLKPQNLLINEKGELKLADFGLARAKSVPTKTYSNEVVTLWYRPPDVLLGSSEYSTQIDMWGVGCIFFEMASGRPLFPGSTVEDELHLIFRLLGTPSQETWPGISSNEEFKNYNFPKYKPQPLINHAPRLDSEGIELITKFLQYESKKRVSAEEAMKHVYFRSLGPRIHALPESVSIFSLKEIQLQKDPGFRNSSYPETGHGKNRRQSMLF
CDK17/Cyclin Y, sequence (Q8ND76 whole entry partner): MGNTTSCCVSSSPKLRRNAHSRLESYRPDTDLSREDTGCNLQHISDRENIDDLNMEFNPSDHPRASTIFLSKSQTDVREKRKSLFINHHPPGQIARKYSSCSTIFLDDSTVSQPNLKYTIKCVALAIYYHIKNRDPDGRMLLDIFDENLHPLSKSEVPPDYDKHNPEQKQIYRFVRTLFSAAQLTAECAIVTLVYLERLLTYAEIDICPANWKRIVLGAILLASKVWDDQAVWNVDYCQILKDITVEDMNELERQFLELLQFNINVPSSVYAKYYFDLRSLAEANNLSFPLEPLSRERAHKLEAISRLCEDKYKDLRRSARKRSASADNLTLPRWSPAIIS
CDK6/Cyclin D1, sequence (Q00534 whole entry): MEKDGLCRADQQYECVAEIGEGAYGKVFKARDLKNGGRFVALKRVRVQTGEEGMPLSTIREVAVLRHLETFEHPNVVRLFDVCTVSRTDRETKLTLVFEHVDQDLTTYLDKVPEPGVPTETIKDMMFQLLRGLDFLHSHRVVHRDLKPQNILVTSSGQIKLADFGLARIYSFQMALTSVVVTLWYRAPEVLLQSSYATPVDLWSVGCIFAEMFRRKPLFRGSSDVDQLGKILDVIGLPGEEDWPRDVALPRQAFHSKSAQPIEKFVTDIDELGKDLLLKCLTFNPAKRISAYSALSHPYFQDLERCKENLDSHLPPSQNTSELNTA
CDK6/Cyclin D1, sequence (P24385 whole entry partner): as the sequence (P24385 whole entry partner) above
CDK10/Cyclin L2, sequence (Q15131 whole entry): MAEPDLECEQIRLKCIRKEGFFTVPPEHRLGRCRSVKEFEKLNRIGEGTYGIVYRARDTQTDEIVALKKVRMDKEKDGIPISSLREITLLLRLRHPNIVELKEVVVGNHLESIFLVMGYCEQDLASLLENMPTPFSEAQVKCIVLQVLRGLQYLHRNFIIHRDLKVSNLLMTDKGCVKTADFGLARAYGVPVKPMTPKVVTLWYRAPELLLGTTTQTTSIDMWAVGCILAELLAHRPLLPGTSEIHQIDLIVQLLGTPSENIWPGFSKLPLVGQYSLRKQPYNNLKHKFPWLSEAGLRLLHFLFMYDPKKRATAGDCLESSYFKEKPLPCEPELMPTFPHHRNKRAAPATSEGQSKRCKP

inhibition at 10 µM (CDK17/Cyclin Y; average of experiments): 41.1% | inhibition at 10 µM (CDK17/Cyclin Y; independent experiment 1): 49.5% | inhibition at 10 µM (CDK17/Cyclin Y; independent experiment 2): 32.7% | IC50 (CDK17/Cyclin Y; average (± SEM where n=3)): 500 ± 200 nM | IC50 (CDK17/Cyclin Y; independent experiment 1): 113 nM | IC50 (CDK17/Cyclin Y; independent experiment 2): 800 nM | IC50 (CDK17/Cyclin Y; independent experiment 3): 628 nM | inhibition at 10 µM (CDK18/Cyclin Y; average of experiments): 13.4% | inhibition at 10 µM (CDK18/Cyclin Y; independent experiment 1): 6.3% | inhibition at 10 µM (CDK18/Cyclin Y; independent experiment 2): 20.6% | inhibition at 10 µM (CDK14/Cyclin Y; average of experiments): 11.3% | inhibition at 10 µM (CDK14/Cyclin Y; independent experiment 1): 16.4% | inhibition at 10 µM (CDK14/Cyclin Y; independent experiment 2): 6.2% | inhibition at 10 µM (CDK10/Cyclin L2; average of experiments): 11.6% | inhibition at 10 µM (CDK10/Cyclin L2; independent experiment 1): 13.3% | inhibition at 10 µM (CDK10/Cyclin L2; independent experiment 2): 9.9% | inhibition at 10 µM (CDK15/Cyclin Y; average of experiments): 8% | inhibition at 10 µM (CDK15/Cyclin Y; independent experiment 1): 2.9% | inhibition at 10 µM (CDK15/Cyclin Y; independent experiment 2): 13.1% | inhibition at 10 µM (CDK2/Cyclin E1; average of experiments): 0.461% | inhibition at 10 µM (CDK2/Cyclin E1; independent experiment 1): 1.5% | inhibition at 10 µM (CDK2/Cyclin E1; independent experiment 2): -0.535% | inhibition at 10 µM (CDK11A/Cyclin L2; average of experiments): 6.5% | inhibition at 10 µM (CDK11A/Cyclin L2; independent experiment 1): 7.3% | inhibition at 10 µM (CDK11A/Cyclin L2; independent experiment 2): 5.8% | inhibition at 10 µM (CDK9/Cyclin K; average of experiments): 38.1% | inhibition at 10 µM (CDK9/Cyclin K; independent experiment 1): 30% | inhibition at 10 µM (CDK9/Cyclin K; independent experiment 2): 46.2% | inhibition at 10 µM (CDK5/CDK5R1; average of experiments): -10.2% | inhibition at 10 µM (CDK5/CDK5R1; independent experiment 1): 2.3% | inhibition at 10 µM (CDK5/CDK5R1; independent experiment 2): -22.7% | inhibition at 10 µM (CDK4/Cyclin D1; average of experiments): 93% | inhibition at 10 µM (CDK4/Cyclin D1; independent experiment 1): 97% | inhibition at 10 µM (CDK4/Cyclin D1; independent experiment 2): 88.9% | inhibition at 10 µM (CDK13/Cyclin K; average of experiments): 3.3% | inhibition at 10 µM (CDK13/Cyclin K; independent experiment 1): 1.9% | inhibition at 10 µM (CDK13/Cyclin K; independent experiment 2): 4.7% | inhibition at 10 µM (CDK12/Cyclin K; average of experiments): -2.6% | inhibition at 10 µM (CDK12/Cyclin K; independent experiment 1): -5.3% | inhibition at 10 µM (CDK12/Cyclin K; independent experiment 2): 0.155% | inhibition at 10 µM (CDK20/Cyclin H; independent experiment 1): 10% | inhibition at 10 µM (CDK20/Cyclin H; independent experiment 2): 5.6% | inhibition at 10 µM (CDK19/Cyclin C; average of experiments): 9.4% | inhibition at 10 µM (CDK19/Cyclin C; independent experiment 1): 10.3% | inhibition at 10 µM (CDK19/Cyclin C; independent experiment 2): 8.5% | inhibition at 10 µM (CDK6/Cyclin D1; average of experiments): 99.4% | inhibition at 10 µM (CDK6/Cyclin D1; independent experiment 1): 98.4% | inhibition at 10 µM (CDK6/Cyclin D1; independent experiment 2): 100% | inhibition at 10 µM (CDK1/Cyclin E1; average of experiments): 8.6% | inhibition at 10 µM (CDK1/Cyclin E1; independent experiment 1): 17.2% | inhibition at 10 µM (CDK1/Cyclin E1; independent experiment 2): -0.0634% | inhibition at 10 µM (CDK16/Cyclin Y; independent experiment 1): 57.8% | inhibition at 10 µM (CDK16/Cyclin Y; independent experiment 2): 35.1% | IC50 (CDK16/Cyclin Y; average (± SEM where n=3)): 600 ± 200 nM | IC50 (CDK16/Cyclin Y; independent experiment 1): 162 nM | IC50 (CDK16/Cyclin Y; independent experiment 2): 870 nM | IC50 (CDK16/Cyclin Y; independent experiment 3): 721 nM | inhibition at 10 µM (CDK11B/Cyclin L2; average of experiments): 23.5% | inhibition at 10 µM (CDK11B/Cyclin L2; independent experiment 1): 6.3% | inhibition at 10 µM (CDK11B/Cyclin L2; independent experiment 2): 40.7% | inhibition at 10 µM (CDK8/Cyclin C; average of experiments): 7.6% | inhibition at 10 µM (CDK8/Cyclin C; independent experiment 1): 7.9% | inhibition at 10 µM (CDK8/Cyclin C; independent experiment 2): 7.4%
Structure (SMILES): CN1CCN(c2ccc(Nc3ncc4cc5n(c4n3)C3(CCCCC3)CNC5=O)nc2)CC1 [Trilaciclib]
